The record followed here is US20240277682A1, “PHARMACEUTICAL HYDRONIDONE FORMULATIONS FOR DISEASES” (Gyre Therapeutics, Inc., priority 2021, published 2024).

The nature of this data set: In vitro drug-drug interaction with Entecavir and Lamivudine in human liver microsomes. The conditions noted are these: each 1.5 mM, P>0.05.

Procedure: Entecavir and Lamivudine, were used concomitantly with Hydronidone, or individually, in the in vitro drug interaction experiments, in respective concentrations of each of 1.5 mM.

For the molecule `Nc1ccn([C@@H]2CS[C@H](CO)O2)c(=O)n1` [lamivudine, reference compound], the “drug interactions with Hydronidone (residual drug concentrations, individual vs combined medication groups)” value is recorded as “do not exhibit drug interactions with Hydronidone”.
